The numbers were not newly measured in patent publication US20250367333A1, “LIPID NANOPARTICLE FOR RADIATION THERAPY, MANUFACTURING METHOD, COMBINATION COMPOSITION, AND KIT” (KABUSHIKI KAISHA TOSHIBA, priority 2024, published 2025), which cites them from elsewhere.

For the data set the following is noted: radioactive material.

As for `[At]` [astatine], the half-life entry was “approximately 7 hours”.
